Drawing on US7074789B2, “Kinase inhibitors” (Amgen Inc., priority 1999, dated 2006), this text covers IC50 for 21 compounds.

Structures are written as SMILES. Bounds are passed on as bounds.

Common to all, as to type: biochemical
One test deals with T1, Itk (Homo sapiens, UniProt Q08881).
T1 construct: Kinases are expressed as either kinase domains or full length constructs; made in house
T1 sequence (Q08881 1-620): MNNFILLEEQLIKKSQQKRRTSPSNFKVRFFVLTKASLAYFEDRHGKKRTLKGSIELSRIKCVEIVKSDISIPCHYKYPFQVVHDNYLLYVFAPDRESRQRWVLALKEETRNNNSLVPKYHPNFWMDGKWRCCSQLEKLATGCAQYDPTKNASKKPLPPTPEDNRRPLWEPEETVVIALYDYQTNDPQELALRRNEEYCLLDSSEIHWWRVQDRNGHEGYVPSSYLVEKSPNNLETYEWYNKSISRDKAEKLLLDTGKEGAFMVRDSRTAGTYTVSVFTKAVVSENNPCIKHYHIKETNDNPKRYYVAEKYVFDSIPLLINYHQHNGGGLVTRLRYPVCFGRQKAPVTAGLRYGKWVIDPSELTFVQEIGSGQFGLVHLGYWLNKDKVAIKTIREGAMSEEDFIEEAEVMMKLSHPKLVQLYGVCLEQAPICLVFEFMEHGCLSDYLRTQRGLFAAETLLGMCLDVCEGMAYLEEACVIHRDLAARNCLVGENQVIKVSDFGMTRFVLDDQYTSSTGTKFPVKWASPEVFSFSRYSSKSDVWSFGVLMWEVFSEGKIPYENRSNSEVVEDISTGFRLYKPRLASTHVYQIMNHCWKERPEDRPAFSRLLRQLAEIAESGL
Briefly: Kinase inhibition assay (33P transfer), Itk. Particulars: Table 3; read-out: Itk-1. An excerpt: (§1) The inhibitor compounds described herein are screened in the following manner. Kinases suitable for use in the following protocol to determine kinase activity of the compounds described herein include, -but are not limited to: Lck, Lyn, Src, Fyn, Syk, Zap-70, Itk, Tec, Btk, EGFR, ErbB2, Kdr, Flt-1, Flt-3, Tek, c-Met, InsR, and AKT.
(§2) Kinases are expressed as either kinase domains or full length constructs fused to glutathione S-transferase (GST) or polyHistidine tagged fusion proteins in either E. colior Baculovirus-High Five expression systems. They are purified to near homogeneity by affinity chromatography essentially as previously described (Lehr et al., 1996; Gish et al., 1995). In some instances, kinases are co-expressed or mixed with purified or partially purified regulatory polypeptides prior to measurement of activity.
(§3) Kinase activity and inhibition are measured essentially by established protocols (Braunwalder et al., 1996). Briefly, The transfer of ^33PO4 from ATP to the synthetic substrates poly(Glu, Tyr) 4:1 or poly(Arg, Ser) 3:1 attached to the bioactive surface of microtiter plates serves as the basis to evaluate enzyme activity. After an incubation period, the amount of phosphate transferred is measured by first washing the plate with 0.5% phosphoric acid, adding liquid scintillant, and then counting in a liquid scintillation detector. The IC50 is determined by the concentration of compound that causes a 50% reduction in the amount of […] incorporated onto the substrate bound to the plate.

A further test has as its target T2, c-Met (Homo sapiens, UniProt P08581).
T2 construct: Kinases are expressed as either kinase domains or full length constructs; made in house
Briefly: Kinase inhibition assay (33P transfer), c-Met. Particulars: Table 2, kinase inhibition class; read-out: Met-1.
Description: as §1, §2, §3

Another test addresses T3, EGFR (Homo sapiens, UniProt P00533).
T3 construct: Kinases are expressed as either kinase domains or full length constructs; made in house
Put plainly: Kinase inhibition assay (33P transfer), EGFR. To be noted: Table 2, kinase inhibition class; read-out: EGFR-1.
Description: as §1, §2, §3

Another test concerns the target T4, Kdr (Homo sapiens, UniProt P35968).
T4 construct: Kinases are expressed as either kinase domains or full length constructs; made in house
Briefly: Kinase inhibition assay (33P transfer), Kdr. Particulars: Table 3; read-out: KDR-1.
Description: as §1
(§4) Kinases are expressed as either kinase domains or full length constructs fused to glutathione S-transferase (GST) or polyHistidine tagged fusion proteins in either E. colior Baculovirus-High Five expression systems. […] In some instances, kinases are co-expressed or mixed with purified or partially purified regulatory polypeptides prior to measurement of activity.
(§5) Briefly, The transfer of ^33PO4 from ATP to the synthetic substrates poly(Glu, Tyr) 4:1 or poly(Arg, Ser) 3:1 attached to the bioactive surface of microtiter plates serves as the basis to evaluate enzyme activity. After an incubation period, the amount of phosphate transferred is measured by first washing the plate with 0.5% phosphoric acid, adding liquid scintillant, and then counting in a liquid scintillation detector.

For a further test, the target named is T5, Lck (Homo sapiens, UniProt P06239).
T5 construct: Kinases are expressed as either kinase domains or full length constructs; made in house
T5 sequence (P06239 whole entry, species assumed, the tested form may be a part): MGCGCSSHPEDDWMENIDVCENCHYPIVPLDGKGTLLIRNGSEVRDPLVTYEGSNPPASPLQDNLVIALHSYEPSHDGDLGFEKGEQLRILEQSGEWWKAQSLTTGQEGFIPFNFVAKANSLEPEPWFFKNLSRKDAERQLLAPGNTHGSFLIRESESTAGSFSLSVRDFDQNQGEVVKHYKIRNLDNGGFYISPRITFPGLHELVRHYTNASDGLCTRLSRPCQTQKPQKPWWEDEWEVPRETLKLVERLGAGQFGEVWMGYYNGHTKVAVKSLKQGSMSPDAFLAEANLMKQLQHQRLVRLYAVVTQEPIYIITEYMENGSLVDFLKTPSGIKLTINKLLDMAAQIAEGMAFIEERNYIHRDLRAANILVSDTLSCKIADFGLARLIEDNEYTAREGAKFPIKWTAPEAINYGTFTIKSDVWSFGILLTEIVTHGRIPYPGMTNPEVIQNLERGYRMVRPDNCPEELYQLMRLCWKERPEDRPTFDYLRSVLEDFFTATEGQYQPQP
Briefly: Kinase inhibition assay (33P transfer), Lck. To be noted: Table 3; read-out: Lck-1.
Description: as §1, §4, §5

For the next test, the target named is T6, Zap-70 (Homo sapiens, UniProt P43403).
T6 construct: Kinases are expressed as either kinase domains or full length constructs; made in house
T6 sequence (P43403 1-619): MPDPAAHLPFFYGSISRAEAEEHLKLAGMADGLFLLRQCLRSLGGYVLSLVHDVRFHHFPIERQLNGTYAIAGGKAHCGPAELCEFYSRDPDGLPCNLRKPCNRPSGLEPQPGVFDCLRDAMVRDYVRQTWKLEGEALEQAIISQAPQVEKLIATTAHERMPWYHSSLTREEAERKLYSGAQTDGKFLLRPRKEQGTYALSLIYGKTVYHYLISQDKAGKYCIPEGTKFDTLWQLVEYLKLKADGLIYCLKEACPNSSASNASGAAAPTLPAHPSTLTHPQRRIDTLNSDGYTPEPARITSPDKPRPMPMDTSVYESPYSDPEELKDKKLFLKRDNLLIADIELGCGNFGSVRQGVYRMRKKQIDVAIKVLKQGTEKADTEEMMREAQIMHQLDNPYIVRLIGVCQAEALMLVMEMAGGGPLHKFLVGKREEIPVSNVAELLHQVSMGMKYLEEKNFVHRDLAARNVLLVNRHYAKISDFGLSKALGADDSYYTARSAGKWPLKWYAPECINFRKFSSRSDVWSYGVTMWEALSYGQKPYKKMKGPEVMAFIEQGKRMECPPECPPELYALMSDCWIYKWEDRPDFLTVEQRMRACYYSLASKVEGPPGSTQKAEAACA
Briefly: Kinase inhibition assay (33P transfer), Zap-70. To be noted: Table 3; read-out: Zap-1.
Description: as §1, §4, §5

T2 sequence (P08581 25-1390): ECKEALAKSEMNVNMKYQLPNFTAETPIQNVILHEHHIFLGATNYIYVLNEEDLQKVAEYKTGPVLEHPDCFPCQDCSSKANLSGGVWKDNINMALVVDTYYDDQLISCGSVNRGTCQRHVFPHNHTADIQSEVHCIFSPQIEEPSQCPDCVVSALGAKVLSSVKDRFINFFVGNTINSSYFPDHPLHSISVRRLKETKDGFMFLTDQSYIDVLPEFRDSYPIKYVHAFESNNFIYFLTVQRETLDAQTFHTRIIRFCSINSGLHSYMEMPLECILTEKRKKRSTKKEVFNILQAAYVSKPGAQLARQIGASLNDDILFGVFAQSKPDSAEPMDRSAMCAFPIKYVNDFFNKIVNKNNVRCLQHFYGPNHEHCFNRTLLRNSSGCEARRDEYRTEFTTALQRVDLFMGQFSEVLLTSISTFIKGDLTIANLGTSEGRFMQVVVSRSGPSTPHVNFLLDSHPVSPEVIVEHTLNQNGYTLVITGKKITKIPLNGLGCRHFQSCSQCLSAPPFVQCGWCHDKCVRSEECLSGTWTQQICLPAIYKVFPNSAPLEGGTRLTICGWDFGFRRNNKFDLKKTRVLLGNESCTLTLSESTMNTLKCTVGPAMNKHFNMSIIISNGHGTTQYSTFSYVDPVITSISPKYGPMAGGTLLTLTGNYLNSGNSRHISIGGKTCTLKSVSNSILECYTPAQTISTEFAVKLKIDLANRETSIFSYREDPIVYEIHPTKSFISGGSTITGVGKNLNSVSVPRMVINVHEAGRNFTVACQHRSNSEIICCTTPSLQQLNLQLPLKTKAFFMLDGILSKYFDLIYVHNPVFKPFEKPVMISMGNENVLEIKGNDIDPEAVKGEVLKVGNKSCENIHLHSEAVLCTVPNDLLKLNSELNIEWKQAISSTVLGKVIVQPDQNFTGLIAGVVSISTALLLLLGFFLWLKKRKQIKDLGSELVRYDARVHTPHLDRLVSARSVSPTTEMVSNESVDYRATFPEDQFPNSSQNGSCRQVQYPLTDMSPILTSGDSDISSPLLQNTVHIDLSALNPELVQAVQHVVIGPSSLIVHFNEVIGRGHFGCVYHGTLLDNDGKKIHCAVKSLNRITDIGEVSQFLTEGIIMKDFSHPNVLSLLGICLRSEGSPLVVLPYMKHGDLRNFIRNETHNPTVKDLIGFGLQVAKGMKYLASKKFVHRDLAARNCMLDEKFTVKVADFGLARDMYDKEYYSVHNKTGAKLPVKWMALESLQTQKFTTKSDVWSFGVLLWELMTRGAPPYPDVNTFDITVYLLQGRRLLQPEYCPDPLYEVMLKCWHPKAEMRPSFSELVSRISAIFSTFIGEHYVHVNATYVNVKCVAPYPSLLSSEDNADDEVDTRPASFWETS
T3 sequence (P00533 25-1210, species assumed): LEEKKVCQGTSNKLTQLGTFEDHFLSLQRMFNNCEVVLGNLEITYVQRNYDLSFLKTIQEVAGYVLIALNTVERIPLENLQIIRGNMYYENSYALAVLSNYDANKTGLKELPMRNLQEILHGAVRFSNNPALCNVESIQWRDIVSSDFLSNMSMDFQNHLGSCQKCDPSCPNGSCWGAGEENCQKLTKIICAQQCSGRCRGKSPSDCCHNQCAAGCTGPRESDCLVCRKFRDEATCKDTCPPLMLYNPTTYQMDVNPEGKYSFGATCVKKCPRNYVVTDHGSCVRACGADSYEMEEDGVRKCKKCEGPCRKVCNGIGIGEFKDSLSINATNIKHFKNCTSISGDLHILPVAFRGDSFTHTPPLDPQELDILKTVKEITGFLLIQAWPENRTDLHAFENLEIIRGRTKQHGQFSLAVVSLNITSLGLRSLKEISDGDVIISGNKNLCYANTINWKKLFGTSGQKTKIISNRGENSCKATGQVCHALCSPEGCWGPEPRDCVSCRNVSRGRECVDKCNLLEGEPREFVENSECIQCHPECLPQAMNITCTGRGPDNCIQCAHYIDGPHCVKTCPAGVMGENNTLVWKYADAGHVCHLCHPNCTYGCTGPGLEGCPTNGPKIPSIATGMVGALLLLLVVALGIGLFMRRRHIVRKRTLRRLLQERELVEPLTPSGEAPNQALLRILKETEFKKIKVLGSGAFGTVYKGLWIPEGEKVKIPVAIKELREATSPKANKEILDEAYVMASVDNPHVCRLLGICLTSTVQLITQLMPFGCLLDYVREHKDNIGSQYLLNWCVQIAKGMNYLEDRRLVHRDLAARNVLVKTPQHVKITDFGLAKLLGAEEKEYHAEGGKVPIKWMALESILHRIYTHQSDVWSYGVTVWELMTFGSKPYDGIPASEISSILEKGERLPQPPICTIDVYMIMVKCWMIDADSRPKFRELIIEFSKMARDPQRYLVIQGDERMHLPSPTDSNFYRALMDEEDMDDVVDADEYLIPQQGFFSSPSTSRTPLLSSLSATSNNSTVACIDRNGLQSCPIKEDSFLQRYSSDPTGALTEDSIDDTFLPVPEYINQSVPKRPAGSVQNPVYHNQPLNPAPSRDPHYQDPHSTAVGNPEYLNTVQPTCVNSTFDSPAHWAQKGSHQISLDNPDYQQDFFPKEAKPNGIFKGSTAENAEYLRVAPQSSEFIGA
T4 sequence (P35968 20-1356, species assumed): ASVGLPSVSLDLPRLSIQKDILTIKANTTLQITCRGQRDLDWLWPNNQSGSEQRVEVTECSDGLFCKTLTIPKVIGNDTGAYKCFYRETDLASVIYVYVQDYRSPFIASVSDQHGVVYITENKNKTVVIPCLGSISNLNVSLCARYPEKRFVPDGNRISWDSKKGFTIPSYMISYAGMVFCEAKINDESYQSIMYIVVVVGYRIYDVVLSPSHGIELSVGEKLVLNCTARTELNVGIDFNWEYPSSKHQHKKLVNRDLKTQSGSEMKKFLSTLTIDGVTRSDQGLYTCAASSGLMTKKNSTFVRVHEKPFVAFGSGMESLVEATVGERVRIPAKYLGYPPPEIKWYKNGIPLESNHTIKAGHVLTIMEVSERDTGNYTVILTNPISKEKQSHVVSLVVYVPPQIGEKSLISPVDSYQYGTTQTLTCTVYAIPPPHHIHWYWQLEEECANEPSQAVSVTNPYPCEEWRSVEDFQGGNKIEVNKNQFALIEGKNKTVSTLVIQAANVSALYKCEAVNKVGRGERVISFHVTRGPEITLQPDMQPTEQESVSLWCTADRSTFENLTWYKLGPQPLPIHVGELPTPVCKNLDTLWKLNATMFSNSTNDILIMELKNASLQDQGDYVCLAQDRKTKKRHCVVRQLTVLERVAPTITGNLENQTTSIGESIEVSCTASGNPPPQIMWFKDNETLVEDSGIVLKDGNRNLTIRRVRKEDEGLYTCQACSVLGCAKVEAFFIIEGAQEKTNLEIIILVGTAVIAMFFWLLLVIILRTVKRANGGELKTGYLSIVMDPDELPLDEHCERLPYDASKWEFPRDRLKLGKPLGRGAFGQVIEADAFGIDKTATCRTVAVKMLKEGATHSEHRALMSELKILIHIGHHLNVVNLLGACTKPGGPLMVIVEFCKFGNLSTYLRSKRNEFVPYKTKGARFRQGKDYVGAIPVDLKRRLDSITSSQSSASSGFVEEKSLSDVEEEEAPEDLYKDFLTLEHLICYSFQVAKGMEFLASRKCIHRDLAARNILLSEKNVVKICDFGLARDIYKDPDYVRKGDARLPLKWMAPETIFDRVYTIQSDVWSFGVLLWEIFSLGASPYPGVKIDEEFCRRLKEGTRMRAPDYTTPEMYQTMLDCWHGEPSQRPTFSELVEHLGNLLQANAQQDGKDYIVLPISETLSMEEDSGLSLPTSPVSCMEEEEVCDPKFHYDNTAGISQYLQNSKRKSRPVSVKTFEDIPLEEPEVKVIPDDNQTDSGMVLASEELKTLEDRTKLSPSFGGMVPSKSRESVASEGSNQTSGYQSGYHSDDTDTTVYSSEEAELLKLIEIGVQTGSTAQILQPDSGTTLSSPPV

For the compound `Cc1cccc(Nc2ncnc(-n3cccc3)n2)c1C` [Compound 281], the IC50 at Itk, at c-Met, at EGFR, at Kdr, at Lck and at Zap-70 was above 17 µM throughout.

Turning to `Nc1ncnc(Nc2nc(-c3ccc(Cl)cc3)cs2)n1` [Compound 1016], the IC50 on Itk, at c-Met, on EGFR, at Kdr, at Lck and on Zap-70 was above 14.8 µM each time.

Take `FC(F)(F)c1cccc(Nc2ncnc(-n3cccc3)n2)c1` [Compound 277]: the IC50 on Itk is above 14.7 µM; on c-Met, above 14.7 µM; on EGFR, above 14.7 µM; at Kdr it was 1.31 to 7.86 µM; on Lck it was above 14.7 µM; on Zap-70, above 14.7 µM.

Take `Fc1ccc(Nc2ncnc(-n3cccc3)n2)cc1` [Compound 284]: the IC50 at Itk is above 17.6 µM; on c-Met it was above 17.6 µM; at EGFR it was above 17.6 µM; on Kdr, 13.7 to 17.6 µM; on Lck, above 17.6 µM; at Zap-70, above 17.6 µM.

Take `ClCc1ccccc1Nc1ncnc(-n2cccc2)n1` [Compound 278]: the IC50 at Itk, at c-Met, at EGFR, on Kdr, on Lck and on Zap-70 was above 15.7 µM each time.

For `Nc1ncnc(Nc2cccc(Nc3ncnc(N)n3)c2)n1` [Compound 1027], the IC50 on Itk, on c-Met, on EGFR, on Kdr, on Lck and at Zap-70 was above 15.2 µM each time.

With `COc1ccccc1Nc1ncnc(-n2cccc2)n1` [Compound 279], the IC50 on Itk, at c-Met, on EGFR, on Kdr, on Lck and on Zap-70 was above 16.8 µM in each case.

Turning to `Cc1cc(Br)ccc1Nc1ncnc(-n2cccc2)n1` [Compound 282], the IC50 on Itk is above 13.6 µM; at c-Met, 7.27 to 10.6 µM; on EGFR, above 13.6 µM; at Kdr, above 13.6 µM; on Lck, above 13.6 µM; on Zap-70 it was above 13.6 µM.

As to `Nc1ncnc(Nc2nc(-c3ccccc3)cs2)n1` [Compound 1020], the IC50 on Itk, on c-Met, at EGFR, on Kdr, at Lck and on Zap-70 was above 16.6 µM throughout.

With `Clc1cccc(Nc2ncnc(-n3cccc3)n2)c1` [Compound 275], the IC50 was above 16.6 µM on Itk; 12.9 to 16.6 µM at c-Met; above 16.6 µM at EGFR; 1.47 to 8.83 µM at Kdr; above 16.6 µM on Lck; above 16.6 µM on Zap-70.

`Brc1ccc(Nc2ncnc(-n3cccc3)n2)cc1` [Compound 272]: the IC50 at Itk was above 14.2 µM; on c-Met, above 14.2 µM; at EGFR, above 14.2 µM; on Kdr, above 14.2 µM; on Lck, above 14.2 µM; on Zap-70, 7.59 to 11.1 µM.

`Clc1ccccc1Nc1ncnc(-n2cccc2)n1` [Compound 280]: the IC50 at Itk, on c-Met, on EGFR, at Kdr, on Lck and on Zap-70 was above 16.6 µM throughout.

On to `Cc1ccc(Nc2ncnc(N)n2)cc1` [Compound 1017], for which the IC50 at Itk, at c-Met, on EGFR, at Kdr, on Lck and on Zap-70 was above 22.4 µM each time.

Turning to `COc1ccc(Nc2ncnc(-n3cccc3)n2)c(OC)c1` [Compound 273], the IC50 at Itk, on c-Met, on EGFR, at Kdr, on Lck and at Zap-70 was above 15.1 µM in each case.

Regarding `Cc1ccc(Nc2ncnc(-n3cccc3)n2)cc1Cl` [Compound 276], the IC50 at Itk is above 15.7 µM; on c-Met it was above 15.7 µM; on EGFR, above 15.7 µM; at Kdr, 1.4 to 8.4 µM; at Lck it was above 15.7 µM; at Zap-70, above 15.7 µM.

As to `Nc1ncnc(Nc2cccc(Cl)c2)n1` [Compound 1019], the IC50 is above 20.3 µM on Itk; above 20.3 µM on c-Met; above 20.3 µM on EGFR; 10.8 to 15.8 µM at Kdr; above 20.3 µM at Lck; above 20.3 µM on Zap-70.

Regarding `Nc1ncnc(Nc2ccc(F)cc2F)n1` [Compound 1014], the IC50 at Itk, on c-Met, at EGFR, on Kdr, at Lck and on Zap-70 was above 20.2 µM in each case.

In the case of `Clc1cc(Cl)cc(Nc2ncnc(-n3cccc3)n2)c1` [Compound 274], the IC50 is above 14.7 µM on Itk; above 14.7 µM on c-Met; above 14.7 µM at EGFR; 1.31 to 7.84 µM on Kdr; above 14.7 µM at Lck; above 14.7 µM on Zap-70.

With `Nc1ncnc(Nc2cccc(C(F)(F)F)c2)n1` [Compound 1015], the IC50 on Itk, at c-Met, on EGFR, on Kdr, at Lck and on Zap-70 was above 17.6 µM throughout.

Regarding `Nc1ncnc(Nc2cc(Cl)ccc2O)n1` [Compound 1022], the IC50 at Itk, on c-Met, on EGFR, at Kdr, on Lck and at Zap-70 was above 18.9 µM throughout.

With `FC(F)(F)c1ccc(Cl)c(Nc2ncnc(-n3cccc3)n2)c1` [Compound 283], the IC50 on Itk, at c-Met, on EGFR, at Kdr, at Lck and on Zap-70 was above 13.2 µM in each case.
